Experimental data published in the supplement of paper PMC3974653.
Where a name gives a salt, the structure may show the parent alone.

test system: MTT (mouse pheochromocytoma); test: IC50 of cell viability (ATP content); conditions: (24 or 48 h)
In short: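 After overnight culture at 37°C, 5% CO2 in white 1536-well plates, MTT mouse pheochromocytoma cells were given 23 nl of library compound in DMSO by pintool across 8 concentrations, spanning final 0.5 nM to 46 µM. Following 24 or 48 hrs, CellTiter-Glo luminescence was read after 15 minutes and normalised against positive-control (100%) and DMSO (0%) wells. A four-parameter logistic model provided the IC50.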

SMILES | IC50 of cell viability
O=C(CCCN1CCC2(CC1)C(=O)NCN2c1ccccc1)c1ccc(F)cc1 [SPIPERONE] | > 46 µM
O=C(O)C(Cl)(Cl)Cl [Trichloroacetic acid] | > 46 µM
CCC1([C@@H]2O[C@@H]([C@@H]3O[C@](O)(CO)[C@@H](C)C[C@H]3C)C[C@H]2C)CC[C@H]([C@]2(C)CC[C@]3(C[C@@H](O)[C@@H](C)[C@H]([C@H](C)[C@H](OC)[C@H](C)C(=O)[O-])O3)O2)O1.[Na+] (stereo partly drawn) [Monensin sodium salt] | > 46 µM
COc1cc(CC(C)N)c(OC)cc1C (single isomer, unassigned; (-)) [(-)-2,5-Dimethoxy-4-methylamphetamine] | > 46 µM
CCCCCCCCCCCCCCNCCO [MYRALACTUM] | > 46 µM
NCC(=O)O [Glycine] | > 46 µM
O=C(O)Cc1ccc(OCCNC[C@H](O)c2ccccc2)cc1 [ZD 2079] | > 46 µM
COC12CCC3(CC1[C@](C)(O)C(C)(C)C)[C@H]1Cc4ccc(O)c5c4[C@@]3(CCN1CC1CC1)C2O5 (stereo partly drawn) [Bupenorphine] | > 46 µM
Nc1nc2ccc([N+](=O)[O-])cc2s1 [2-Amino-6-nitrobenzothiazole] | > 46 µM
OC(=O)C1=CC=C2[NH]C=C(CCCCN3CC\C(=C/C3)C4=CC=CC=C4)C2=C1 [CARMOXIROLUM] | > 46 µM
OCC(O)CN1CCN(c2ccccc2)CC1 (stereo not drawn) [DROPROPIZINE] | > 46 µM
COc1cc2nc(N3CCN(C(=O)c4ccco4)CC3)nc(N)c2cc1OC [Prazosin] | > 46 µM
C[C@H]1[C@@H]2Cc3ccc(O)cc3[C@]1(C)CCN2C [(+)-Metazocine] | > 46 µM
CC(Cc1ccccc1)NC=O (stereo not drawn) [Formetorex] | > 46 µM
C[N+](C)(C)CCOC(=O)CCC(=O)OCC[N+](C)(C)C.[Cl-].[Cl-] [Succinylcholine chloride] | > 46 µM
O=C(O)CCCCCCCC(=O)O [Nonanedioic acid] | > 46 µM
Cc1ccc(S(=O)(=O)[O-])cc1C [Sodium xylenesulfonate] | > 46 µM
CCN(CC)CCSC(=O)C(c1ccccc1)c1ccccc1 [Thiphenamil hydrochloride] | > 46 µM
COc1ccc(C2NC(=S)N3C(c4ccc(OC)c(OC)c4)NC(=S)N23)cc1OC (stereo not drawn) | > 46 µM
O=C1CC[C@@]2(O)C3Cc4ccc(O)c5c4C2(CCN3CC2CC2)[C@H]1O5 (stereo partly drawn) [NALTREXONE] | > 46 µM
c1ccc2c(c1)Nc1ccccc1S2 [Phenothiazine] | > 46 µM
CC[C@H](CO)NCCN[C@@H](CC)CO [Ethambutol dihydrochloride] | > 46 µM
NC(=O)n1c(O)c(C(=O)c2cccs2)c2cc(Cl)ccc21 [TENIDAPUM] | > 46 µM

SMILES | IC50 of cell viability
O=P(O)(O)O [phosphoric acid] | > 46 µM
C#C[C@]1(O)CC[C@H]2[C@@H]3CCC4=CC(=O)CCC4=C3C=C[C@@]21CC [GESTRINONE] | > 46 µM
CNC(=O)Oc1ccccc1C(=O)Nc1ccccc1 [Anilamate] | > 46 µM
CC(C(=O)O)c1ccc2c(c1)[nH]c1ccc(Cl)cc12 (stereo not drawn) [CARPROFEN] | > 46 µM
CN1CCN(CCCN2c3ccccc3Sc3ccccc32)CC1 [Perazine] | > 46 µM
Clc1cccc(SC2CCNCC2)n1 [ANPIRTOLINE] | > 46 µM
CN1N(C2=CC=CC=C2)C(=O)C(=C1/C)/N [Ampyrone] | > 46 µM
CC(N[NH3+])c1ccccc1 (stereo not drawn) [Mebanazine] | > 46 µM
N=C(N)NC(=N)NCCc1ccccc1 [Phenformin hydrochloride] | > 46 µM
COc1ccc2c(C(=O)c3ccc(Cl)cc3)c(C)n(CC(=O)O)c2c1 [Clometacine] | > 46 µM
FC(F)(F)C(F)(F)C(F)(F)C(F)(F)C(F)(F)C(F)(F)F [PERFLEXANE] | > 46 µM
Cc1ccccc1 [Toluene] | > 46 µM
COc1cc(C)c(Cc2cnc(N)nc2N)cc1OC [ORMETOPRIM] | > 46 µM
CN1CC\C(CC1)=C2\C3=C(CCC4=CC=CC=C24)SC=C3 [PIZOTIFEN] | > 46 µM
O=C(O)CCCCC1CCSS1 (stereo not drawn) [alpha-Lipoic acid] | > 46 µM
CCNC(=O)[C@H]1CCCN1C(=O)[C@H](CCCNC(=N)N)NC(=O)[C@H](CC(C)C)NC(=O)[C@H](CC(C)C)NC(=O)[C@@H](Cc1ccc(O)cc1)NC(=O)[C@H](CO)NC(=O)[C@@H](Cc1c[nH]c2ccccc12)NC(=O)[C@H](Cc1c[nH]cn1)NC(=O)[C@@H]1CCC(=O)N1 [Leuprolide acetate salt] | > 46 µM
O=C([O-])c1c(Cl)c(Cl)c(Cl)c(Cl)c1-c1c2cc(I)c(=O)c(I)c-2oc2c(I)c([O-])c(I)cc12 [Rose Bengal sodium] | > 46 µM
CCC(=O)OC1(c2ccccc2)CCN(C)CC1 [1-Methyl-4-phenyl-4-propionoxypiperidine] | > 46 µM
NC(=O)c1cc([N+](=O)[O-])cc([N+](=O)[O-])c1 [NITROMIDE] | > 46 µM
CN(C)CC/C=C1\c2ccccc2Sc2ccc(Cl)cc21 [Chlorprothixene] | > 46 µM
NCCNCCNCCN [Triethylenetetramine] | > 46 µM
CC[NH+](CC)CCOC(=O)c1ccc(N)cc1Cl [CHLOROPROCAINE HYDROCHLORIDE] | > 46 µM
CC1OC1P(=O)([O-])[O-].[Ca+2] (stereo not drawn) [FOSFOMYCIN] | > 46 µM

Next, values leading:

IC50 of cell viability | SMILES
> 46 µM | CCOc1ccc(C(=O)OCCN(CC)CC)cc1 [PARETHOXYCAINE HYDROCHLORIDE]
> 46 µM | COC(=O)\C1=C(/C)N\C(=C(/C1C2=C(Cl)C(=CC=C2)Cl)C(=O)OC(C)C)COC(N)=O (stereo not drawn) [LEMILDIPINE]
> 46 µM | Cc1ccc(Nc2nccc(N(C)c3ccc4c(C)n(C)nc4c3)n2)cc1[S+](N)(=O)[O-] [Pazopanib]
> 46 µM | C[C@@H]1C[C@@H](OC(=O)[C@@H](O)c2ccccc2)CC(C)(C)N1C [Eucatropine hydrochloride]
> 46 µM | CCC(=O)OCC(=O)C1(OC(=O)CC)C(C)CC2C3CCC/4=C/C(=O)/C=C\C4(C)C3(Cl)C(O)CC12C (stereo not drawn) [Beclazone]
> 46 µM | CN(C)[C@@H]\1[C@@H]2C[C@H]3\C(=C(\O)[C@@]2(O)C(=O)\C(=C1O)C(N)=O)C(=O)C4=C(C=CC=C4O)[C@@]3(C)O [Tetracycline hydrochloride]
> 46 µM | CC\1=C(/CCN2CCC(CC2)C3=NOC4=C3C=CC(=C4)F)C(=O)[N@@]\5CCC[C@H](O)C5=N1 (racemic) [rac 9-Hydroxy Risperidone]
> 46 µM | O=C(O)CSCC(=O)NC1CCSC1=O (stereo not drawn) [Erdosteine]
> 46 µM | COc1ccc(C(=O)c2ccccc2O)c(O)c1 [Dioxybenzone]
> 46 µM | COC(=O)[C@@H]1[C@@H]2C[C@H]3c4[nH]c5ccccc5c4CCN3C[C@@H]2CC[C@@H]1O [Yohimbine]
> 46 µM | COc1ccc(C(=O)CC(=O)c2ccc(C(C)(C)C)cc2)cc1 [AVOBENZONE]
> 46 µM | CC12CC3CC(C)(C1)CC(N)(C3)C2 [MEMANTINE]
> 46 µM | CC(C)[N+](C)(CCOC(=O)C1c2ccccc2Oc2ccccc21)C(C)C.[Br-] [PROPANTHELINE BROMIDE]
> 46 µM | CC(=O)OCC1=C(C(=O)[O-])N2C(=O)C(NC(=O)Cc3ccccc3)C2SC1 (stereo not drawn) [Cefaloram]
> 46 µM | CCCCCCCCCCCCCCCC(=O)OC/C=C(C)/C=C/C=C(C)/C=C/C1=C(C)CCCC1(C)C [Retinyl palmitate]
> 46 µM | CC(=O)OCC(=O)[C@@]1(O)CCC2C3C[C@H](C)C4=CC(=O)C=CC4(C)C3C(O)CC21C (stereo partly drawn) [Methylprednisolone acetate]
> 46 µM | COc1ccc(C(=O)/C(Br)=C/C(=O)O)cc1 [ACIDUM BROMEBRICUM]
> 46 µM | CC/C=C(/C(=O)N[C@@H]1C(=O)N2C(C(=O)OCOC(=O)C(C)(C)C)=C(COC(N)=O)CS[C@H]12)c1csc(N)n1 [Cefcapene pivoxil HCl]
> 46 µM | CCC(=O)OCC(=O)[C@@]1(OC(=O)CC)[C@H](C)C[C@@H]2[C@@H]3[C@H](Cl)C\C4=C\C(=O)\C=C/[C@@]4(C)[C@H]3[C@@H](O)C[C@@]12C [Alclometasone dipropionate]
> 46 µM | C[C@H]1C[C@H]2[C@@H]3C[C@H](F)C/4=C/C(=O)/C=C\[C@]4(C)[C@@]3(F)[C@@H](O)C[C@]2(C)[C@@]1(OC(C)=O)C(=O)COC(C)=O [Diflorasone diacetate]
> 46 µM | C[C@H](O)[C@H]1[C@@H]2C\C(=C(/N2C1=O)C(O)=O)SCCNC=N [Imipenem]
> 46 µM | CC(C)(C)c1cc(O)ccc1O [tert-Butylhydroquinone]
> 46 µM | CC1=C[C@@H](O)CC(C)(C)[C@@H]1/C=C/C(C)=C/C=C/C(C)=C/C=C/C=C(C)/C=C/C=C(C)/C=C/C1=C(C)C[C@H](O)CC1(C)C [LUTEIN]
> 46 µM | C[C@H](CCC(=O)[O-])[C@H]1CC[C@H]2[C@@H]3CC[C@@H]4C[C@H](O)CC[C@]4(C)[C@H]3C[C@H](O)[C@]12C [Deoxycholic acid sodium salt]
> 46 µM | CN1C(=O)CC(C)(c2ccccc2)C1=O (stereo not drawn) [Methsuximide]
> 46 µM | CC(=O)Nc1ccc(OCCOCCOc2ccc(NC(C)=O)cc2)cc1 [Diamfenetida]
> 46 µM | C[C@@H](C(=O)O)c1ccc(C(=O)c2cccs2)cc1 [Suprofen]
